{"source": "patent US7615361B2", "about": "“Toxicity screening methods” (Ceetox, Inc., priority 2006, dated 2009)", "key": {"BNP": {"system": "BNP", "experiment": "bDNA analysis of mRNA in rat cardiomyocytes", "assay_type": "cell-based", "conditions": "rat cardiomyocytes, 1, 3, 6 and 24 hours", "description": "(§1) Hypertrophy of the heart ventricular myocytes is regulated by a complex series of intracellular signaling processes involving angiotensin receptors and a series of down stream gene expression changes (Li et al. 2006). Endothelin-1 (ET-1) induces hypertrophy of cardiomyocytes in vivo and in vitro. The mechanism of ET-1-induced hypertrophy consists in the activation of phospholipase C, protein kinase C, extra cellular signal regulated kinase (ERK) and upregulation of cfos and cjun.\n(§2) Expression of ANP and BNP mRNA levels was determined by bDNA analysis of mRNA. ET-1 at 0.1 μM was included as a positive control.\n(§3) […] Plates were mixed using a DPC 5 Micromix plate shaker at 37° C. for 15-30 minutes to ensure complete lysis of cells. Cell lysis was confirmed using a Nikon inverted microscope. Plates were stored at −80° C. until further analysis.\n(§4) bDNA Analysis (Day 1): All solutions were prepared fresh on the day of analysis. Quantigene® bDNA kit components were brought to room temperature prior to use. Chemicals not supplied by Genospectra were obtained from Sigma-Aldrich.\n(§5) On the day of analysis, Target Probe Sets were prepared for probe gene sets by adding 25 μL of each probe set component (CE, LE, BL) to 425 μL stock lysis solution using the following probe set concentrations: CE (50 fmol/μL), LE (200 fmol/μL), BL (100 fmol/μL).\n(§6) Cell lysis plates were removed from freezer storage and thawed. […] Next, 10 μL of the appropriate Target Probe Set (PS2) was added to each appropriate well of the Capture Plate. Plates were tightly sealed using a plate sealer and incubated at 53° C. for 16-20 hr (overnight).\n(§7) bDNA Analysis (Day 2): Wash buffer was prepared in ultra-pure water using 0.1×Saline-Sodium Citrate (SSC) and 0.03% Lithium Lauryl Sulfate (LLS). Amplifier working solution was prepared by adding 10 μL Amplifier to 10 mL Amplifier Diluent per plate.\n(§8) Plates were removed from incubator and washed three times with 300 μL wash buffer. Wash buffer was completely removed from plates by aspiration and 100 μL Amplifier working solution was added to each well. Plates were sealed and incubated at 46° C. for 1 hr.\n(§9) Label Probe working solution was prepared by adding 10 μL Label Probe to 10 mL Label Probe Diluent per plate. […] Plates were sealed and incubated at 46° C. for 1 hr."}, "ANP": {"system": "ANP", "experiment": "bDNA analysis of mRNA in rat cardiomyocytes", "assay_type": "cell-based", "conditions": "rat cardiomyocytes, 1, 3, 6 and 24 hours", "description": "as §1, §2, §3, §4, §5, §6, §7, §8, §9"}, "SK-MEL28 cells [1]": {"system": "SK-MEL28 cells", "experiment": "BrdU incorporation", "assay_type": "cell-based, human", "conditions": "SK-MEL28, 24 hr exposure to 5 and 10 μM", "procedure": "Bromodexoyurine (BrDU) Incorporation: This assay was used to monitor cumulative changes in DNA replication. The assay uses the thymidine analog BrdU to measure S-phase of cell replication and is considered to be the Gold Standard for cell proliferation. BrDU (10 μM) was included in the test compound dosing solution to allow BrDU incorporation during cell replication. BrDU was included for the duration of the exposure, 24 hr. After completion of exposure period, the cells were fixed and labeled with mouse monoclonal anti-BrDU (FITC). Fluorescence was measured using a Packard Fusion or equivalent plate reader at 485 nm excitation and 530 nm emission.\nBromodexoyurine (BrDU) Incorporation: After incubation, the test compound/BrDU solution was removed and cells were fixed. A solution containing mouse monoclonal anti-BrDU (FITC) was added and fluorescence was measured. Data were collected as relative fluorescent units (RFU). The blank was subtracted from the final well RFU. It represents the average of the first and last columns which contain no cells on that particular plate. The controls are untreated cells allowed to grow on the same plate. The compounds are represented by several separate RFU data points for each of the tested concentrations. The percent change relative to controls was calculated by dividing the average RFU by the control cell RFU and multiplying by 100.\nExperiments were also conducted to verify the relationship between exposure time and the observed cytostatic effects of the test compound. An additional assay was used to monitor cumulative change in DNA replication. The assay uses the thymidine analog BrdU to measure S-phase of cell replication and is considered to be the Gold Standard for cell proliferation. […] The BrdU assay paralleled the MTT and propidium iodide assays. The apparent lower sensitivity of the BrdU assay is a reflection of the experimental design not the assay. BrdU data represents a cumulative effect from the beginning of exposure while the other assays are measuring one is remaining at the end of either the 24 hr or 72 hr exposure period. […] There was a trend toward increasing activity in caspase-3, a marker for cell apoptosis."}, "HUVEC": {"system": "HUVEC", "experiment": "Caspase 3 activity (apoptosis)", "assay_type": "cell-based, human", "conditions": "24 HR", "procedure": "(§10) Caspase 3 Procedure: Caspase 3 activity was determined using a caspase substrate (DEVD, Asp-Glu-Val-Asp) labeled with a fluorescent molecule, 7-Amino4-methylcoumarin (AMC). Caspase 3 cleaves the tetrapeptide between D and AMC, thus releasing the fluorogenic […] AMC. Following the test article exposure to cells in 96-well plates, medium was aspirated from plates and PBS added to each well. Plates were stored at −80° C. to lyse cells and store samples until further analysis. On the day of analysis, plates were removed from freezer and thawed. Caspase buffer with fluorescent substrate was added to each well and incubated at room temperature for 1 hr. AMC release was measured in a spectrofluorometer at an excitation wavelength of 360 nm and an emission wavelength of 460 nm. Values are expressed as relative fluorescent units (RFU).\n(§11) Caspase Activity: After sample plates were completely thawed, the caspase substrate buffer mix was added to each plate. Plates were incubated at room temperature for 1hr, shielded from light. Plates were read using a in a spectrofluorometer at an excitation wavelength of 360 nm and an emission wavelength of 460 nm. Values were expressed as relative fluorescent units (RFU).\n(§12) The key to the maximal response data can be found below Table 2.\n(§13) Dosing solutions were prepared in complete culture medium."}, "NHEM cells": {"system": "NHEM cells", "experiment": "Caspase 3 activity (apoptosis)", "assay_type": "cell-based, human", "conditions": "24 HR", "procedure": "as §10, §11, §12, §13"}, "SK-MEL28 cells [2]": {"system": "SK-MEL28 cells", "experiment": "Caspase 3 activity (apoptosis)", "assay_type": "cell-based, human", "procedure": "as §10, §11, §12, §13"}, "C32 cells": {"system": "C32 cells", "experiment": "Caspase 3 activity (apoptosis)", "assay_type": "cell-based, human", "conditions": "C32, 24 HR", "procedure": "as §10, §11, §12, §13"}, "NRK cells": {"system": "NRK cells", "experiment": "Caspase 3 activity (apoptosis)", "assay_type": "cell-based, rat", "procedure": "as §10, §11, §12\nThe third experiment was done to evaluate the specificity and selectivity of the test compound in another non-tumor cell that was derived from normal rat kidney tissue."}}}
{"smiles": "COc1cccc2c1C(=O)c1c(O)c3c(c(O)c1C2=O)C[C@@](O)(C(=O)CO)C[C@@H]3O[C@H]1C[C@H](N)[C@H](O)[C@H](C)O1", "note": "[ADRIAMYCIN, Adriamycin]", "values": [{"measurement": "effect on BNP expression", "setting": "BNP", "result": "no effect"}, {"measurement": "effect on ANP expression", "setting": "ANP", "result": "no effect"}]}
{"smiles": "CC[C@@]1(O)C(=O)OCc2c1cc1n(c2=O)Cc2cc3ccccc3nc2-1", "note": "[CAMPTOTHECIN, Camptothecin]", "values": [{"measurement": "Cell proliferation as measured by the S-phase marker BrdU", "setting": "SK-MEL28 cells [1]", "result": "undetectable"}, {"measurement": "Caspase 3 Activity (Index/Dose): Index", "setting": "HUVEC", "result": "1 (0-200 = 1)"}, {"measurement": "Caspase 3 Activity (Index/Dose): Dose", "setting": "HUVEC; controls (μM section)", "result": 300}, {"measurement": "Caspase 3 Activity (Index/Dose): Index", "setting": "NHEM cells", "result": "3 (400-600 = 3)"}, {"measurement": "Caspase 3 Activity (Index/Dose): Dose", "setting": "NHEM cells; controls (μM section)", "result": 300}, {"measurement": "Caspase 3 Activity (Index/Dose): Index", "setting": "SK-MEL28 cells [2]; SK-MEL28, 24 HR", "result": "3 (400-600 = 3)"}, {"measurement": "Caspase 3 Activity (Index/Dose): Index", "setting": "SK-MEL28 cells [2]; SK-MEL28, 24 HR, COMP A (LOW) / controls #2", "result": "3 (400-600 = 3)"}, {"measurement": "Caspase 3 Activity (Index/Dose): Dose", "setting": "SK-MEL28 cells [2]; SK-MEL28, 24 HR, run #2, controls (μM section)", "result": 100}, {"measurement": "Caspase 3 Activity (Index/Dose): Dose", "setting": "SK-MEL28 cells [2]; SK-MEL28, 24 HR, controls (μM section of table)", "result": 300}, {"measurement": "Caspase 3 Activity (Index/Dose): Index", "setting": "SK-MEL28 cells [2]; SK-MEL28, 72 HR, COMP A (LOW) / controls #2", "result": "3 (400-600 = 3)"}, {"measurement": "Caspase 3 Activity (Index/Dose): Dose", "setting": "SK-MEL28 cells [2]; SK-MEL28, 72 HR, run #2, controls (μM section)", "result": 100}, {"measurement": "Caspase 3 Activity (Index/Dose): Index", "setting": "C32 cells", "result": "4 (600-800 = 4)"}, {"measurement": "Caspase 3 Activity (Index/Dose): Dose", "setting": "C32 cells; controls (μM section)", "result": 300}, {"measurement": "Caspase 3 Activity (Index/Dose): Dose", "setting": "NRK cells; 6 HR", "result": 100, "unit": "µM"}, {"measurement": "Caspase 3 Activity (Index/Dose): Index", "setting": "NRK cells; 6 HR", "result": "3 (40-60 = 3)"}, {"measurement": "Caspase 3 Activity (Index/Dose): Dose", "setting": "NRK cells; 24 HR", "result": 300, "unit": "µM"}, {"measurement": "Caspase 3 Activity (Index/Dose): Index", "setting": "NRK cells; 24 HR", "result": "10 (180-200 = 10)"}]}
